# Measurements reported in PubChem BioAssay (NCI).
#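 How tested: cells in 96-well plates exposed to compound for 48 hours at five concentrations. GI50: concentration for 50% inhibition of growth. TGI: concentration producing complete growth inhibition.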
# Experiments:
# Experiment in all cases: NCI tumour cell line growth inhibition, 48 h
# NCI/ADR-RES ovarian = system: NCI/ADR-RES ovarian
# MOLT-4 leukemia = system: MOLT-4 leukemia
# IGROV1 ovarian = system: IGROV1 ovarian
# HS 578T breast = system: HS 578T breast
# PC-3 prostate = system: PC-3 prostate
# HOP-92 NSCLC = system: HOP-92 NSCLC
# OVCAR-4 ovarian = system: OVCAR-4 ovarian
# MCF7 breast = system: MCF7 breast
# U251 CNS = system: U251 CNS
# SF-295 CNS = system: SF-295 CNS
# NCI-H226 lung = system: NCI-H226 lung
# EKVX NSCLC = system: EKVX NSCLC
# MDA-MB-435 = system: MDA-MB-435
# OVCAR-3 ovarian = system: OVCAR-3 ovarian
# NCI-H23 lung = system: NCI-H23 lung
# CAKI-1 renal = system: CAKI-1 renal
# SNB-75 CNS = system: SNB-75 CNS
# SN12C renal = system: SN12C renal
# SF-268 CNS = system: SF-268 CNS
# HT29 colon = system: HT29 colon
# M14 melanoma = system: M14 melanoma
# SK-MEL-2 melanoma = system: SK-MEL-2 melanoma
# A549 NSCLC = system: A549 NSCLC
# HCT-116 colon = system: HCT-116 colon
# T-47D breast = system: T-47D breast
# 786-0 renal = system: 786-0 renal
# UO-31 renal = system: UO-31 renal
# UACC-257 melanoma = system: UACC-257 melanoma
# NCI-H522 lung = system: NCI-H522 lung
# MALME-3M melanoma = system: MALME-3M melanoma
# SNB-19 CNS = system: SNB-19 CNS
# K-562 leukemia = system: K-562 leukemia
# KM12 colon = system: KM12 colon
# CCRF-CEM leukemia = system: CCRF-CEM leukemia
# RPMI-8226 leukemia = system: RPMI-8226 leukemia
# UACC-62 melanoma = system: UACC-62 melanoma
# COLO 205 colon = system: COLO 205 colon
# OVCAR-8 ovarian = system: OVCAR-8 ovarian
# SF-539 CNS = system: SF-539 CNS
# BT-549 breast = system: BT-549 breast
# LOX IMVI melanoma = system: LOX IMVI melanoma
# SK-OV-3 ovarian = system: SK-OV-3 ovarian
# RXF 393 renal = system: RXF 393 renal
# NCI-H460 lung = system: NCI-H460 lung
# TK-10 renal = system: TK-10 renal
# MDA-MB-231 breast = system: MDA-MB-231 breast
# HCC-2998 colon = system: HCC-2998 colon
# SK-MEL-5 melanoma = system: SK-MEL-5 melanoma
# SW-620 colon = system: SW-620 colon
# ACHN renal = system: ACHN renal
# A498 renal = system: A498 renal
# HCT-15 colon = system: HCT-15 colon
# OVCAR-5 ovarian = system: OVCAR-5 ovarian
# DU-145 prostate = system: DU-145 prostate
# HOP-62 NSCLC = system: HOP-62 NSCLC
# SK-MEL-28 melanoma = system: SK-MEL-28 melanoma
structure (smiles),measurement,setting,value
COc1cccc2c(Nc3ccc(C(=O)NCCN4CCNCC4)cc3)cc(-c3ccccc3)nc12,GI50,NCI/ADR-RES ovarian,> 100 µM
same,TGI,NCI/ADR-RES ovarian,> 100 µM
same,GI50,MOLT-4 leukemia,30.6 µM
same,TGI,MOLT-4 leukemia,> 100 µM
same,GI50,IGROV1 ovarian,32.1 µM
same,TGI,IGROV1 ovarian,> 100 µM
same,GI50,HS 578T breast,46.9 µM
same,TGI,HS 578T breast,> 100 µM
same,GI50,PC-3 prostate,25.8 µM
same,TGI,PC-3 prostate,> 100 µM
same,GI50,HOP-92 NSCLC,95 µM
same,TGI,HOP-92 NSCLC,> 100 µM
same,GI50,OVCAR-4 ovarian,17.4 µM
same,TGI,OVCAR-4 ovarian,74.2 µM
same,GI50,MCF7 breast,23.7 µM
same,TGI,MCF7 breast,> 100 µM
same,GI50,U251 CNS,34.8 µM
same,TGI,U251 CNS,> 100 µM
same,GI50,SF-295 CNS,33.1 µM
same,TGI,SF-295 CNS,> 100 µM
same,GI50,NCI-H226 lung,> 100 µM
same,TGI,NCI-H226 lung,> 100 µM
same,GI50,EKVX NSCLC,> 100 µM
same,TGI,EKVX NSCLC,> 100 µM
same,GI50,MDA-MB-435,35.9 µM
same,TGI,MDA-MB-435,> 100 µM
same,GI50,OVCAR-3 ovarian,> 100 µM
same,TGI,OVCAR-3 ovarian,> 100 µM
same,GI50,NCI-H23 lung,> 100 µM
same,TGI,NCI-H23 lung,> 100 µM
same,GI50,CAKI-1 renal,> 100 µM
same,TGI,CAKI-1 renal,> 100 µM
same,GI50,SNB-75 CNS,33.2 µM
same,TGI,SNB-75 CNS,> 100 µM
same,GI50,SN12C renal,50.7 µM
same,TGI,SN12C renal,> 100 µM
same,GI50,SF-268 CNS,50.1 µM
same,TGI,SF-268 CNS,> 100 µM
same,GI50,HT29 colon,20.7 µM
same,TGI,HT29 colon,> 100 µM
same,GI50,M14 melanoma,20.1 µM
same,TGI,M14 melanoma,38.7 µM
same,GI50,SK-MEL-2 melanoma,19.9 µM
same,TGI,SK-MEL-2 melanoma,51.7 µM
same,GI50,A549 NSCLC,> 100 µM
same,TGI,A549 NSCLC,> 100 µM
same,GI50,HCT-116 colon,30.9 µM
same,TGI,HCT-116 colon,> 100 µM
same,GI50,T-47D breast,29.4 µM
same,TGI,T-47D breast,> 100 µM
same,GI50,786-0 renal,51.1 µM
same,TGI,786-0 renal,> 100 µM
same,GI50,UO-31 renal,49.4 µM
same,TGI,UO-31 renal,> 100 µM
same,GI50,UACC-257 melanoma,> 100 µM
same,TGI,UACC-257 melanoma,> 100 µM
same,GI50,NCI-H522 lung,15.8 µM
same,TGI,NCI-H522 lung,30.5 µM
same,GI50,MALME-3M melanoma,21.6 µM
same,TGI,MALME-3M melanoma,47.6 µM
same,GI50,SNB-19 CNS,53.1 µM
same,TGI,SNB-19 CNS,> 100 µM
same,GI50,K-562 leukemia,27.7 µM
same,TGI,K-562 leukemia,75.3 µM
same,GI50,KM12 colon,30.8 µM
same,TGI,KM12 colon,> 100 µM
same,GI50,CCRF-CEM leukemia,30.1 µM
same,TGI,CCRF-CEM leukemia,91.7 µM
same,GI50,RPMI-8226 leukemia,18 µM
same,TGI,RPMI-8226 leukemia,44.3 µM
same,GI50,UACC-62 melanoma,65.6 µM
same,TGI,UACC-62 melanoma,> 100 µM
same,GI50,COLO 205 colon,19.7 µM
same,TGI,COLO 205 colon,56.1 µM
same,GI50,OVCAR-8 ovarian,39.2 µM
same,TGI,OVCAR-8 ovarian,> 100 µM
same,GI50,SF-539 CNS,22.9 µM
same,TGI,SF-539 CNS,57 µM
same,GI50,BT-549 breast,35.1 µM
same,TGI,BT-549 breast,> 100 µM
same,GI50,LOX IMVI melanoma,20.6 µM
same,TGI,LOX IMVI melanoma,45.9 µM
same,GI50,SK-OV-3 ovarian,> 100 µM
same,TGI,SK-OV-3 ovarian,> 100 µM
same,GI50,RXF 393 renal,> 100 µM
same,TGI,RXF 393 renal,> 100 µM
same,GI50,NCI-H460 lung,35.1 µM
same,TGI,NCI-H460 lung,> 100 µM
same,GI50,TK-10 renal,57 µM
same,TGI,TK-10 renal,> 100 µM
same,GI50,MDA-MB-231 breast,19.9 µM
same,TGI,MDA-MB-231 breast,> 100 µM
same,GI50,HCC-2998 colon,49.2 µM
same,TGI,HCC-2998 colon,> 100 µM
same,GI50,SK-MEL-5 melanoma,31 µM
same,TGI,SK-MEL-5 melanoma,> 100 µM
same,GI50,SW-620 colon,29 µM
same,TGI,SW-620 colon,> 100 µM
same,GI50,ACHN renal,18.8 µM
same,TGI,ACHN renal,40.8 µM
same,GI50,A498 renal,> 100 µM
same,TGI,A498 renal,> 100 µM
same,GI50,HCT-15 colon,57.8 µM
same,TGI,HCT-15 colon,> 100 µM
same,GI50,OVCAR-5 ovarian,> 100 µM
same,TGI,OVCAR-5 ovarian,> 100 µM
same,GI50,DU-145 prostate,71 µM
same,TGI,DU-145 prostate,> 100 µM
same,GI50,HOP-62 NSCLC,> 100 µM
same,TGI,HOP-62 NSCLC,> 100 µM
same,GI50,SK-MEL-28 melanoma,19 µM
same,TGI,SK-MEL-28 melanoma,64.7 µM
